Source: publication PMC12822473, “A Novel FGFR3‐Targeting Antibody‐Drug Conjugate Induces Tumor Cell Apoptosis through the cGAS–STING Pathway in Bladder Cancer” (Advanced Science, 2025)

Molecular target: T1, MAD2L1 (T24 cells; MAD2L1WT and mutants reconstituted in MAD2L1‐KD T24 cells) (Homo sapiens, UniProt Q13257)
T1 construct: MAD2L1 in human T24 cells: native, or WT / mutants re-expressed by lentivirus in knockdown cells; Western blot read-out
Experiment: streptavidin pull-down, Western blot and MS
Format: biochemical
Conditions: labelled compound; T24 lysate, 4 °C; competed by excess unlabelled A2

T1 sequence (Q13257 2-205, change not shown): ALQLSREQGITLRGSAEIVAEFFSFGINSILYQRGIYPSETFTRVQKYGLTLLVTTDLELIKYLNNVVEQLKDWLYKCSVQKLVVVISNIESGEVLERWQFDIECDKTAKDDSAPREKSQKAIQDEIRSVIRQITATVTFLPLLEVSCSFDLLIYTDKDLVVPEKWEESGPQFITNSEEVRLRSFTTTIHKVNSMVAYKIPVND

## CCc1c2c(nc3cccc(F)c13)-c1cc3c(c(=O)n1C2)COC(=O)[C@@]3(CC)OC(=O)CCCC[C@@H]1SC[C@@H]2NC(=O)N[C@@H]21 [A2‐biotin]
  streptavidin pull-down, Western blot and MS: pull‐down/Western blot analysis demonstrated that A2‐biotin directly binds to MAD2L1
